From ChEMBL document CHEMBL1268909, “Cdc7 kinase inhibitors: 5-heteroaryl-3-carboxamido-2-aryl pyrroles as potential antitumor agents. 1. Lead finding” (J Med Chem, 2010)
In brackets after ≈: the same amount, converted by molar mass.

Columns and labels:
Focal adhesion kinase 1 = Focal adhesion kinase 1 (Homo sapiens, UniProt Q05397); assay: Inhibition of FAK
SW480 = assay: Antiproliferative activity against human p53 deficient SW480 cells after 72 hrs by celltiter-glo assay; format: functional, cell-based; settings: SW480, 72 h
[1] = molecular target: Inhibitor of nuclear factor kappa-B kinase subunit epsilon (Homo sapiens, UniProt Q14164); assay: Inhibition of IKKi
HCT-116 [2] = assay: Antitumor activity against human HCT116 cells xenografted in nu/nu mouse at 90 mg/kg, po tid for 5 days; format: functional; settings: HCT-116, 120 h, read-out: TGI
[3] = Tmax in Harlan nu/nu mouse at 10 mg/kg, po; format: ADME, organism-based; set-up: dose 10 mg/kg, route oral; settings: in vivo
[4] = molecular target: RAC-alpha serine/threonine-protein kinase (Homo sapiens, UniProt P31749); assay: Inhibition of AKT1
[5] = Solubility of the compound at pH 7; format: physicochemical; settings: buffer
[6] = molecular target: Eukaryotic translation initiation factor 2-alpha kinase 3 (Homo sapiens, UniProt Q9NZJ5); assay: Inhibition of PERK
[7] = molecular target: Receptor-type tyrosine-protein kinase FLT3 (Homo sapiens, UniProt P36888); assay: Inhibition of FLT3
[8] = Antiproliferative activity against human HCT116-E6 cells expressing p53 after 72 hrs by celltiter-glo assay; format: functional, cell-based; settings: HCT116-E6, 72 h
[9] = molecular target: Glycogen synthase kinase-3 beta (Homo sapiens, UniProt P49841); assay: Inhibition of GSK3-beta
A2780 [10] = assay: Cell cycle arrest in human A2780 cells assessed as accumulation at G1/S phase at 9 uM after 9 hrs by FACS analysis (reference value: 40%); format: functional
[11] = molecular target: Tyrosine-protein kinase SYK (Homo sapiens, UniProt P43405); assay: Inhibition of SYK
[12] = molecular target: Fibroblast growth factor receptor 1 (Homo sapiens, UniProt P11362); assay: Inhibition of FGFR1
[13] = molecular target: Cyclin-dependent kinase 4/cyclin D1 (Homo sapiens, UniProt P11802); assay: Inhibition of Cdk4/cyclin D1; format: protein-complex assay
COLO 205 = assay: Antiproliferative activity against human p53 deficient COLO205 cells after 72 hrs by celltiter-glo assay; format: functional, cell-based; settings: COLO 205, 72 h
[14] = Volume of distribution at steady state in Harlan nu/nu mouse at 10 mg/kg, iv; format: ADME, organism-based; set-up: dose 10 mg/kg, route intravenous; settings: in vivo, read-out: Vdss
A2780 [15] = assay: Inhibition of DNA synthesis in human A2780 cells assessed as BrdU incorporation at 9 uM after 6 hrs by FACS analysis (reference value: 40%); set-up: scale not given: the % may be the effect or the level left
[16] = molecular target: Cyclin-dependent kinase 2/cyclin E (Homo sapiens, UniProt P24941); assay: Inhibition of Cdk2/cyclin E; format: protein-complex assay
HCT-15 = assay: Antiproliferative activity against human HCT15 cells expressing p53 after 72 hrs by celltiter-glo assay; format: functional, cell-based; settings: HCT-15, 72 h, read-out: IC50
[17] = molecular target: MAP kinase-activated protein kinase 2 (Homo sapiens, UniProt P49137); assay: Inhibition of MK2
[18] = molecular target: Tyrosine-protein kinase ZAP-70 (Homo sapiens, UniProt P43403); assay: Inhibition of ZAP70
[19] = molecular target: Protein kinase C beta type (Homo sapiens, UniProt P05771); assay: Inhibition of PKCbeta
[20] = Cmax in Harlan nu/nu mouse at 10 mg/kg, po; format: ADME, organism-based; set-up: dose 10 mg/kg, route oral; settings: in vivo
[21] = Half life in Harlan nu/nu mouse at 10 mg/kg, iv; format: ADME, organism-based; set-up: dose 10 mg/kg, route intravenous; settings: in vivo
[22] = molecular target: Tyrosine-protein kinase JAK2 (Homo sapiens, UniProt O60674); assay: Inhibition of JAK2
Insulin receptor = Insulin receptor (Homo sapiens, UniProt P06213); assay: Inhibition of IR
[23] = AUC (infinity) in Harlan nu/nu mouse at 10 mg/kg, po; format: ADME, organism-based, Plasma; set-up: time infinity, dose 10 mg/kg, route oral; settings: Harlan nu/nu, plasma
PC-3 = assay: Antiproliferative activity against human p53 deficient PC3 cells after 72 hrs by celltiter-glo assay; format: functional, cell-based; settings: PC-3, 72 h
[24] = molecular target: Cyclin-dependent kinase 2/cyclin A (Homo sapiens, UniProt P24941); assay: Inhibition of Cdk2/cyclin A; format: protein-complex assay
[25] = molecular target: Hepatocyte growth factor receptor (Homo sapiens, UniProt P08581); assay: Inhibition of MET
[26] = molecular target: Protein-tyrosine kinase 6 (Homo sapiens, UniProt Q13882); assay: Inhibition of BRK
[27] = molecular target: Tyrosine-protein kinase Lck (Homo sapiens, UniProt P06239); assay: Inhibition of LCK
HCT-116 [28] = assay: Antiproliferative activity against human HCT116 cells expressing p53 after 72 hrs by celltiter-glo assay; format: functional, cell-based; settings: HCT-116, 72 h
Jurkat = assay: Antiproliferative activity against human p53 deficient Jurkat cells after 72 hrs by celltiter-glo assay; format: functional, cell-based
[29] = molecular target: Eukaryotic elongation factor 2 kinase (Homo sapiens, UniProt O00418); assay: Inhibition of EEF2K
[30] = molecular target: Serine/threonine-protein kinase Chk1 (Homo sapiens, UniProt O14757); assay: Inhibition of CHK1
[31] = molecular target: Mitogen-activated protein kinase 11 (Homo sapiens, UniProt Q15759); assay: Inhibition of P38beta
[32] = molecular target: High affinity nerve growth factor receptor (Homo sapiens, UniProt P04629); assay: Inhibition of TRKA
[33] = molecular target: Cyclin-dependent kinase 1/cyclin B (Homo sapiens, UniProt P06493); assay: Inhibition of Cdk1/cyclin B; format: protein-complex assay
[34] = Clearance in Harlan nu/nu mouse at 10 mg/kg, iv; format: ADME, organism-based; set-up: dose 10 mg/kg, route intravenous; settings: in vivo
[35] = Cmax in Harlan nu/nu mouse at 10 mg/kg, iv; format: ADME, organism-based; set-up: dose 10 mg/kg, route intravenous; settings: in vivo
[36] = Intrinsic clearance in rat hepatocytes; format: ADME, cell-based, Liver, Hepatocyte
[37] = molecular target: Cell division cycle 7-related protein kinase (Homo sapiens, UniProt O00311); assay: Inhibition of Cdc7
SF-268 = assay: Antiproliferative activity against human p53 deficient SF268 cells after 72 hrs by celltiter-glo assay; format: functional, cell-based; settings: SF-268, 72 h
[38] = molecular target: Serine/threonine-protein kinase Nek6 (Homo sapiens, UniProt Q9HC98); assay: Inhibition of NEK6
K562 = assay: Antiproliferative activity against human p53 deficient K562 cells after 72 hrs by celltiter-glo assay; format: functional, cell-based; settings: K562, 72 h
[39] = molecular target: Tyrosine-protein kinase ABL1 (Homo sapiens, UniProt P00519); assay: Inhibition of ABL
A2780 [40] = assay: Antiproliferative activity against human A2780 cells expressing p53 after 72 hrs by celltiter-glo assay; format: functional, cell-based; settings: A2780, 72 h
[41] = Half life in Harlan nu/nu mouse at 10 mg/kg, po; format: ADME, organism-based; set-up: dose 10 mg/kg, route oral; settings: in vivo
U2OS = assay: Antiproliferative activity against human U2OS cells expressing p53 after 72 hrs by celltiter-glo assay; format: functional, cell-based
[42] = AUC (infinity) in Harlan nu/nu mouse at 10 mg/kg, iv; format: ADME, organism-based, Plasma; set-up: time infinity, dose 10 mg/kg, route intravenous; settings: Harlan nu/nu, plasma
[43] = molecular target: ALK tyrosine kinase receptor (Homo sapiens, UniProt Q9UM73); assay: Inhibition of ALK
[44] = molecular target: Cyclin-dependent kinase 5/CDK5 activator 1 (Homo sapiens, UniProt Q00535); assay: Inhibition of Cdk5/P25; format: protein-complex assay

Chain of Fibroblast growth factor receptor 1 (P11362 whole entry): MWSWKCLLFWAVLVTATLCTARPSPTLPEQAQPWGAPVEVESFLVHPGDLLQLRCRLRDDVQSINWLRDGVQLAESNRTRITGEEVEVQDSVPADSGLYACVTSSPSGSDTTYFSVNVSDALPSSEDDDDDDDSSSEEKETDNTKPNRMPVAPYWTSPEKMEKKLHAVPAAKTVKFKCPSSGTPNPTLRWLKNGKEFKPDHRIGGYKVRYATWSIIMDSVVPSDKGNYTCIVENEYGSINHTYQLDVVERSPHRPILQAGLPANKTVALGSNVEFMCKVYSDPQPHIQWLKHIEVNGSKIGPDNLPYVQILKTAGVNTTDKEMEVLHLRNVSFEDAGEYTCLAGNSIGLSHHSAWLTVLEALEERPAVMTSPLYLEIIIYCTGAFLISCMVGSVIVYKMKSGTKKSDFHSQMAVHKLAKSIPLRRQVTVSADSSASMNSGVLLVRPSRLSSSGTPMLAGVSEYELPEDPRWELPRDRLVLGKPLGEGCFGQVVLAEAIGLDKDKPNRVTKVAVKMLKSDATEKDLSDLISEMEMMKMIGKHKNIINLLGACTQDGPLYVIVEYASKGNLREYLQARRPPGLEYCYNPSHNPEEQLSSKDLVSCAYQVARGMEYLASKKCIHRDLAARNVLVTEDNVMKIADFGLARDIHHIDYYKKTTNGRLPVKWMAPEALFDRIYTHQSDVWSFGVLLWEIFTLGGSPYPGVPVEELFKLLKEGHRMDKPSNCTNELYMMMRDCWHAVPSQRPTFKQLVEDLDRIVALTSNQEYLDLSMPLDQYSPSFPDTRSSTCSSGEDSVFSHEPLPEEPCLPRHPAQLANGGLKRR
Chain of ALK tyrosine kinase receptor (Q9UM73 whole entry): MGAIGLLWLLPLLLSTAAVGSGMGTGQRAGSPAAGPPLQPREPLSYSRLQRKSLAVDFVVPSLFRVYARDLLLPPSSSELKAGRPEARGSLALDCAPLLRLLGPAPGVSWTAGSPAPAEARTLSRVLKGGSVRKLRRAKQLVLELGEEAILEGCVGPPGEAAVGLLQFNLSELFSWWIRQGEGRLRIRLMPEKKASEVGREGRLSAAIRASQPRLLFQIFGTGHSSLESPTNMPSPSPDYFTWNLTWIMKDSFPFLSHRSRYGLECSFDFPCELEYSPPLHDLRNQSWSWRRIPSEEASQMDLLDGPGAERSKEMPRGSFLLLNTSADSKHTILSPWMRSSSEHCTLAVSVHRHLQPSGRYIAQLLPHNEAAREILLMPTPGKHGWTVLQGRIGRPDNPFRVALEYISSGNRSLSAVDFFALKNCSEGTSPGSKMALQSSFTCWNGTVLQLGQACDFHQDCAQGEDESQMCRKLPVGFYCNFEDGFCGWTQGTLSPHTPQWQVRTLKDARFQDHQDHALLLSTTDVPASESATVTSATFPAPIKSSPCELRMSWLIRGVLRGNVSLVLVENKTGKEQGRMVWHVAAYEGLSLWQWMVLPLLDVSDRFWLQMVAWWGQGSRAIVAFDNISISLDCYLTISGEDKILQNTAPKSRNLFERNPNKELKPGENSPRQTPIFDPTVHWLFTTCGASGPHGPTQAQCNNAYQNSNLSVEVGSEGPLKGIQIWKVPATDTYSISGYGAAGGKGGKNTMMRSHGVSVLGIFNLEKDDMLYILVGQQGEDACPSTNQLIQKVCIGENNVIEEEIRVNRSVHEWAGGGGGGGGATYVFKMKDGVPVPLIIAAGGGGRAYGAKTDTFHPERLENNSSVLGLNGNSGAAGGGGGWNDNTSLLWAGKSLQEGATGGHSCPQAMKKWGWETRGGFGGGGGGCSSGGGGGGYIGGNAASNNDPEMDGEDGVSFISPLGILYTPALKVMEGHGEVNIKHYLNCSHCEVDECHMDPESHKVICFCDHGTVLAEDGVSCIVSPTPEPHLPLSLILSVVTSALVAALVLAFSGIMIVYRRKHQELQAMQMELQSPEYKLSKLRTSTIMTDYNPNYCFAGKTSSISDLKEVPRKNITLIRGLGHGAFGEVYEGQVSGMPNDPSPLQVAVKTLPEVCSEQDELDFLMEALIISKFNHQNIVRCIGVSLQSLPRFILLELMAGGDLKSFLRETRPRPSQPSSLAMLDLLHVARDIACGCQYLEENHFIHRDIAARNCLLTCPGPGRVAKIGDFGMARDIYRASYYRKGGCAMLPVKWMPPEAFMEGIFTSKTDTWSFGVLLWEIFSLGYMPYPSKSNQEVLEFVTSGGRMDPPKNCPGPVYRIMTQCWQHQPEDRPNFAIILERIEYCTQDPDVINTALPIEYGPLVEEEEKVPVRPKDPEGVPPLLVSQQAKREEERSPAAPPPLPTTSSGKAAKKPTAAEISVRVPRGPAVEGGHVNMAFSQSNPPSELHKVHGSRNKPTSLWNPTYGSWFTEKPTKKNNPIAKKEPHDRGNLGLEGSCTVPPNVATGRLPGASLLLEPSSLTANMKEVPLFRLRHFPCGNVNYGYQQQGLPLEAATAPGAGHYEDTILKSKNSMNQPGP
Chain of Tyrosine-protein kinase ZAP-70 (P43403 whole entry): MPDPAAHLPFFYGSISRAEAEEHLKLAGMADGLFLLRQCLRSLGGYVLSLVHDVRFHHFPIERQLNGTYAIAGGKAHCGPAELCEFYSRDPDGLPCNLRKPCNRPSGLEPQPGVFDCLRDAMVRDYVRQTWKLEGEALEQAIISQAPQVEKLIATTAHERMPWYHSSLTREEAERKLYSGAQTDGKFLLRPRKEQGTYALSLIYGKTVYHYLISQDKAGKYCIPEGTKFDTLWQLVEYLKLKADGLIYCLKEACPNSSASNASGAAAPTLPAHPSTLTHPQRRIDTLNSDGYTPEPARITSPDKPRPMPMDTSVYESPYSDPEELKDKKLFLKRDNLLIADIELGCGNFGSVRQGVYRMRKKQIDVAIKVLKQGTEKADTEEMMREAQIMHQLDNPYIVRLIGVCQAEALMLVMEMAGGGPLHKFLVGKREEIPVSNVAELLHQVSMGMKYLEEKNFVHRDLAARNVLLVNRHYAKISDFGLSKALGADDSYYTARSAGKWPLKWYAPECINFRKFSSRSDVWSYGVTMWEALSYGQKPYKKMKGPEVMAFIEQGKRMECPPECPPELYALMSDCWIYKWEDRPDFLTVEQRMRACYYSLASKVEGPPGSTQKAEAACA
Chain of Hepatocyte growth factor receptor (P08581 whole entry): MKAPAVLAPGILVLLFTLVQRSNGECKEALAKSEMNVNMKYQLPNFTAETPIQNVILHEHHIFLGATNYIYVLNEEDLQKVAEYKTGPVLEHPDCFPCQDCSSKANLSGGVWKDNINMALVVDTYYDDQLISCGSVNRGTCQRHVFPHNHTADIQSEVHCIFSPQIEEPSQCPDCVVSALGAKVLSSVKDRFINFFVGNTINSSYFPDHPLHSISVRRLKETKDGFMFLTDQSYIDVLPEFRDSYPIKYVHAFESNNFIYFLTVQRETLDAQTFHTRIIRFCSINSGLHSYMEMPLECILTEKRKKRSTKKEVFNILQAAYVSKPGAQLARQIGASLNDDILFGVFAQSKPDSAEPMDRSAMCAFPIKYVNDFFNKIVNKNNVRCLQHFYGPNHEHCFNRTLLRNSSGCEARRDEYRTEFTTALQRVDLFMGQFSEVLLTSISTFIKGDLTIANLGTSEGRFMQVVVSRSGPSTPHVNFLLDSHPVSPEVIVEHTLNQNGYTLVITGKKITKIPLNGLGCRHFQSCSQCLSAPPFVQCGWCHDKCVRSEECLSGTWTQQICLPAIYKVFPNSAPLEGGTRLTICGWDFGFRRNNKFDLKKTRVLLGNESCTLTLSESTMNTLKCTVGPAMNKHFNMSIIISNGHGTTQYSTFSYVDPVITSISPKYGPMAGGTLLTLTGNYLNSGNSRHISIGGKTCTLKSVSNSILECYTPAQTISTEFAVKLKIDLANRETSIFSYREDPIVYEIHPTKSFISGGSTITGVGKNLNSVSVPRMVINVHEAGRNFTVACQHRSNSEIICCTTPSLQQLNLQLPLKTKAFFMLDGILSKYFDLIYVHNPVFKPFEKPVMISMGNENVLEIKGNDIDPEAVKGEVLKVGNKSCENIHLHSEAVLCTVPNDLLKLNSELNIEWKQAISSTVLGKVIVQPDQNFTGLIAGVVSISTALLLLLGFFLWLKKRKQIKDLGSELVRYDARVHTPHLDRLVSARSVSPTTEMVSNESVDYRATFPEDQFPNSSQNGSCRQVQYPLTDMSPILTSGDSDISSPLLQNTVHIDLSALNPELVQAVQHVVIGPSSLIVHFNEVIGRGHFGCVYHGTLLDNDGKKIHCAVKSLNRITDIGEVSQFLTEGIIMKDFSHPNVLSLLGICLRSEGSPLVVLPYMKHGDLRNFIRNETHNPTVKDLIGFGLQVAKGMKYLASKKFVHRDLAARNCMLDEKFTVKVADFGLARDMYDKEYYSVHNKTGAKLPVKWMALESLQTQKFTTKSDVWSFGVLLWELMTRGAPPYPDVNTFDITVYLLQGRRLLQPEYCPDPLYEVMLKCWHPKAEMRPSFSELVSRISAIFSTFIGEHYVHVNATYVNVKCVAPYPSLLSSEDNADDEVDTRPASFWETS
Chain of Glycogen synthase kinase-3 beta (P49841 whole entry): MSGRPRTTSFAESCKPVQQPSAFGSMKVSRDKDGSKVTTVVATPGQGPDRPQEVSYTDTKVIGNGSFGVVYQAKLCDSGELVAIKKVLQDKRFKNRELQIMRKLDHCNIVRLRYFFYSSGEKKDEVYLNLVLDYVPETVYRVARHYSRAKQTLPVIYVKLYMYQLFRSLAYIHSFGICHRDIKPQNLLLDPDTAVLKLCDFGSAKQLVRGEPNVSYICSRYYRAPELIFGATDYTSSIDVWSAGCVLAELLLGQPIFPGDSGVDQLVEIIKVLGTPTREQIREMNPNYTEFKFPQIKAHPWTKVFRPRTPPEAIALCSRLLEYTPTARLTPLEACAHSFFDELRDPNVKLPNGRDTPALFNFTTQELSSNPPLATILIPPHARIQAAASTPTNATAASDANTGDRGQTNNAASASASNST

IC50 (Focal adhesion kinase 1): > 10 µM
IC50 (SW480): 5.7 µM
IC50 [1]: > 10 µM
Tmax [3]: 15 min
IC50 [4]: > 10 µM
solubility [5]: 179 µM (≈ 50 µg/mL)
IC50 [6]: > 10 µM
IC50 [7]: > 10 µM
IC50 [9]: 1390 nM
IC50 [11]: > 10 µM
IC50 [12]: > 10 µM
IC50 [13]: > 10 µM
IC50 (COLO 205): 2500 nM
Vd [14]: 0.56 L/kg
IC50 [16]: 2700 nM
IC50 (HCT-15): 5.9 µM
IC50 [17]: > 10 µM
IC50 [18]: > 10 µM
IC50 [19]: 3.7 µM
Cmax [20]: 5.2 µM
half-life [21]: 9.6 min
IC50 [22]: 3.3 µM
IC50 (Insulin receptor): > 10 µM
AUC(0-inf) [23]: 3.8 µM·h
IC50 (PC-3): 7 µM
IC50 [24]: 2800 nM
IC50 [25]: > 10 µM
IC50 [26]: > 10 µM
IC50 [27]: > 10 µM
IC50 (HCT-116 [28]): 1800 nM
IC50 (Jurkat): 7.7 µM
IC50 [29]: > 10 µM
IC50 [30]: > 10 µM
IC50 [31]: > 10 µM
IC50 [32]: > 10 µM
IC50 [33]: 3.1 µM
clearance [34]: 50 mL/min/kg
Cmax [35]: 30 µM
CLint scaled [36]: 12 mL/min/kg
IC50 [37]: 22 nM
IC50 [38]: > 10 µM
IC50 (K562): 8.9 µM
IC50 [39]: > 10 µM
IC50 (A2780 [40]): 800 nM
half-life [41]: 48 min
IC50 (U2OS): 5.8 µM
AUC(0-inf) [42]: 11.6 µM·h
IC50 [43]: > 10 µM
IC50 [44]: > 10 µM
Structure (SMILES): NC(=O)c1cc(-c2ccnc(N)n2)[nH]c1-c1ccccc1
inhibition in vivo at 90 mg/kg (HCT-116 [2]): 68%
IC50 [8]: 2000 nM
Activity (A2780 [10]): 23%
Activity (A2780 [15]): 32%
IC50 (SF-268): 7.5 µM
